What all share (format): biochemical
Test [1] concerns tubulin. Put plainly: electron microscopic analysis of microtubules. The conditions noted are these: tubulin 1 mg/ml, 37° C., 30 minutes. As for the experimental part: When tubulin polymerization was monitored by measuring the absorbance as in Example 1, increase in the absorbance may occur not only by microtubule assembly but also by the aggregation of tubulins. Thus, in order to confirm that the turbidity change is caused by microtubule assembly, the morphology of the polymers was examined with electron microscopy. Tubulin was added to 0.1M MES buffer to a concentration of 1 mg/ml, and GTP, taxol or TALP was added to a final reaction volume of 250 μl. The reaction mixture was incubated at 37° C. for 30 minutes, and the absorbance change at 350 nm was monitored. At this time, the reaction solutions showing increase in the absorbance were fixed and applied to a carbon-coated grids, and dried. Grids were then stained with 1% uranyl acetate for 5 minutes, washed with distilled water, and dried. And then, they were examined with electron microscope(Hitachi H-600, Japan) at an accelerated voltage of 75 kv.

The subject of test [2] is tubulin. Put plainly: tubulin polymerization monitored by turbidity (absorbance at 350 nm). The conditions noted are these: 20 μM taxol; control 2 mM GTP. As for the experimental part: All of the purification steps were carried out under 4° C., and TALP activity was determined by the conventional tubulin polymerization which was monitored by turbidity(see: Gaskin, F. et al., 1974, J. Mol. Biol., 89:737-758): Tubulin prepared according to the method of Hamel et al. or Asnes et al.(see: Hamel E. et al., 1981, Arch. Biochem. Biophys., 209:29-40; Asnes, C. F. and Wilson, L., 1979, Anal. Biochem., 98:64-73) was added to 0.1M MES(2-[N-morpholino]ethane sulfonic acid) buffer(0.1M MES containing 1 mM EGTA and 1 mM MgCl2, pH 6.8) to a final concentration of 1 mg/ml, and TALP containing solution was added to a final reaction volume of 250 μl. The reaction mixture was incubated at 37° C. for 30 minutes, and the change in absorbance at 350 nm was monitored with a Gilford Model 2600 spectrophotometer(Gilford, USA).
Effects of GTP, taxol and TALP on tubulin polymerization were examined in the same manner as described in Example 1.
When 0.5 μM of TALP was added to the reaction mixture, tubulin polymerization occurred twice or more as high as one without TALP(see: FIG. 4).

Test [3] deals with tubulin. Put plainly: effect of Ca2+ on microtubules assembled by GTP, taxol or TALP. The conditions noted are these: 4 mM CaCl2. As for the experimental part: To investigate effect of Ca^2+ on tubulin polymerization, tubulin was added to 0.1M MES buffer(pH 6.8) free of EGTA, and GTP, taxol or TALP was added, and polymerization of microtubules were carried out at 37° C. for 15 minutes. Then, 4 mM CaCl2 was added to the reaction mixture, and depolymerization of microtubules assembled was measured, with the addition of GTP, taxol or TALP(see: FIG. 5).

Test [4] deals with tubulin isolated from bovine brain. The experiment in a line: coprecipitation of tubulin and TALP (centrifugation, SDS-PAGE of supernatants and pellets). The conditions noted are these: tubulin 0.4 mg/ml, 37° C., 30 minutes. As for the experimental part: To investigate whether TALP promotes microtubule assembly in the same manner as taxol, tubulin isolated from bovine brain was added to 0.1M MES buffer(pH 6.8) to a concentration of 0.4 mg/ml. Then, 2 mM GTP, 10 μM taxol or 4 μM TALP was added to the reaction mixture, and polymerization of microtubules were carried out at 37° C. for 30 minutes. The reaction mixtures were centrifuged for 20 minutes, and the supernatants and the pellets thus obtained were analyzed by 12% SDS-PAGE(see: FIG. 7(A)).
Also, tubulin polymerization was investigated with the variation of TALP concentration. […] In FIGS. 7(A) and 7(B), S and P designate supernatant and pellet, respectively.

In test [5] the test system is tubulin. Put plainly: effect of cold temperature (4° C.) on microtubules assembled by GTP, taxol or TALP. The conditions noted are these: chilled to 4° C. As for the experimental part: To investigate effect of cold temperature on tubulin polymerization, tubulin was added to 0.1M MES buffer(pH 6.8). Then GTP, taxol or TALP was added to the reaction mixture, and polymerization of microtubules were carried out at 37° C. for 15 minutes. Then, the reaction solution was chilled to a temperature of 4° C., and depolymerization of microtubules assembled was measured, with the addition of GTP, taxol or TALP(see: FIG. 6).

In the case of `CC(=O)O[C@H]1C(=O)[C@@]2(C)[C@H]([C@H](OC(=O)c3ccccc3)[C@]3(O)C[C@H](OC(=O)[C@H](O)[C@@H](NC(=O)c4ccccc4)c4ccccc4)C(C)=C1C3(C)C)[C@]1(OC(C)=O)CO[C@@H]1C[C@@H]2O` [taxol], the “morphology of the polymers by electron microscopy” value with tubulin [1] is listed as “typical microtubules were assembled”. Further, the “tubulin polymerization, times as high as the control” value in the test on tubulin [2] stood at 2.5 times. Moreover, the “microtubules depolymerized by Ca2+” value with tubulin [3] (assembled by 10 μM taxol) came out at 30%. Besides, the tubulins polymerized result in test [4] (10 μM taxol) was “about 20%”. Further, in the test on tubulin [5] (assembled by 10 μM taxol), the “microtubules depolymerized at 4° C.” value is recorded as 25%.

`Nc1nc2c(ncn2[C@@H]2O[C@H](COP(=O)(O)OP(=O)(O)OP(=O)(O)O)[C@@H](O)[C@H]2O)c(=O)[nH]1` [GTP]: the “morphology of the polymers by electron microscopy” value in the test on tubulin [1] is recorded as “typical microtubules were assembled”. Besides, in the test with tubulin [3] (assembled by 2 mM GTP), the “microtubules depolymerized by Ca2+” value is “most”. In test [4] (2 mM GTP), the tubulins polymerized result was “most of tubulins were not polymerized”. In the test on tubulin [5] (assembled by 2 mM GTP), the “microtubules depolymerized at 4° C.” value is reported as “most”.

(Values after patent US20010034322A1, “Taxol-like protein (TALP) and process for preparing the same” (priority 1996, published 2001).)
